*1 amine or outer side, *2 acyl side, *3 side chain or, on linkers, in order; H or OH if unused. Where a SMILES comes first, the peptide text is derived from it. [ ]: non-standard residue; d: D form. The star is where a group is joined. ξ: configuration not given here. Phac(3-amino) = O=C(Cc1cccc(N[*:1])c1)[*:2]; X5 = O=C(c1ccc(-c2ccc(N[*:1])cc2)o1)[*:2]; X7 = O=C(c1ccc(-c2cccc(N[*:1])c2)o1)[*:2]; X13 = CC(C(=O)[*:2])c1ccc(N[*:1])cc1; X2 = O=C(/C=C/c1ccc(N[*:1])cc1)[*:2]; NH(2,6-Me2-phenyl) = Cc1cccc(C)c1N*; X3 = O=C(CCCc1ccc(N[*:1])cc1)[*:2]; X9 = Cc1ccccc1NC(=O)Nc1cccc(N*)c1; X1 = O=C(Cc1ccc(N[*:1])cc1)[*:2]; X8 = O=C(COc1ccccc1N[*:1])[*:2]; Ile(3ξ) = CCC(C)[C@H](N)C(=O)O; NH(2-Me-phenyl) = Cc1ccccc1N*; X12 = c1ccc(Oc2ccccc2N*)cc1; 4Abz = Nc1ccc(C(=O)O)cc1; Nle = CCCC[C@H](N)C(=O)O; X11 = CC(C)c1ccccc1N*; CO = O=C([*:1])[*:2]

One experiment concerns the target Integrin alpha-4/beta-1 (Homo sapiens, UniProt P05556+P13612, T112H). The experiment in a line: Jurkat Cell Adhesion Inhibition Assay.
Conditions: not given
The method, then: Binding affinities (IC50) of the ligands were studied in a Jurkat cell adhesion assay by inhibiting the alpha-4/beta-1 mediated cell adhesion to CS-1 peptides. The 96-well plates were coated with neutravidin, followed by biotinconjugated CS-1 peptides. Jurkat cells with series dilutions of tested ligands in binding buffer were added and allowed to bind for 30 min. Bound cells were recorded using a 96-well plate reader at 570 nm. IC50 values were calculated from inhibition curves resulting from the concentration-dependent inhibition
The term IC50 denotes the concentration at which inhibition is half-maximal. Molecule `CCCC[C@H](NC(=O)Cc1cccc(NC(=O)Nc2ccccc2C)c1)C(=O)N[C@@H](CC(=O)O)C(=O)N[C@H](C(=O)N1CCC[C@H]1C(N)=O)C(C)CC` (stereo partly drawn) [(3S)-3-{[(2S,3S)-1-[(2S)-2-carbamoylpyrrolidin-1-yl]-3-methyl-1-oxopentan-2-yl]carbamoyl}-3-[(2S)-2-[1-(3-{[(2-methylphenyl)carbamoyl]amino}phenyl)acetamido]hexanamido]propanoic acid] ({NH(2-Me-phenyl)-CO}-[Phac(3-amino)][Nle]D[Ile(3ξ)]P-NH2) gave an IC50 of 140 nM.

`CCCC[C@H](NC(=O)Cc1ccc(NC(=O)Nc2c(C)cccc2C)cc1)C(=O)N[C@@H](CC(=O)O)C(=O)N[C@H](C(=O)N1CCC[C@H]1C(N)=O)C(C)CC` (stereo partly drawn) [(3S)-3-{[(2S,3S)-1-[(2S)-2-carbamoylpyrrolidin-1-yl]-3-methyl-1-oxopentan-2-yl]carbamoyl}-3-[(2S)-2-[1-(4-{[(2,6-dimethylphenyl)carbamoyl]amino}phenyl)acetamido]hexanamido]propanoic acid] ({NH(2,6-Me2-phenyl)-CO}-[X1][Nle]D[Ile(3ξ)]P-NH2) had an IC50 of 7.2 nM. Against the preceding molecule, the IC50 is about 19-fold lower.

The molecule `CCCC[C@H](NC(=O)Cc1ccc(NC(=O)Nc2ccccc2Oc2ccccc2)cc1)C(=O)N[C@@H](CC(=O)O)C(=O)N[C@H](C(=O)N1CCC[C@H]1C(N)=O)C(C)CC` (stereo partly drawn) [(3S)-3-{[(2S,3S)-1-[(2S)-2-carbamoylpyrrolidin-1-yl]-3-methyl-1-oxopentan-2-yl]carbamoyl}-3-[(2S)-2-[1-(4-{[(2-phenoxyphenyl)carbamoyl]amino}phenyl)acetamido]hexanamido]propanoic acid] ({X12-CO}-[X1][Nle]D[Ile(3ξ)]P-NH2) displayed a half-inhibitory concentration (IC50) of 500 nM.

Molecule `CCCC[C@H](NC(=O)COc1ccccc1NC(=O)Nc1ccccc1C)C(=O)N[C@@H](CC(=O)O)C(=O)N[C@H](C(=O)N1CCC[C@H]1C(N)=O)C(C)CC` (stereo partly drawn) [(3S)-3-{[(2S,3S)-1-[(2S)-2-carbamoylpyrrolidin-1-yl]-3-methyl-1-oxopentan-2-yl]carbamoyl}-3-[(2S)-2-[2-(2-{[(2-methylphenyl)carbamoyl]amino}phenoxy)acetamido]hexanamido]propanoic acid] ({NH(2-Me-phenyl)-CO}-[X8][Nle]D[Ile(3ξ)]P-NH2) registered an IC50 of 463 nM. On the same count and under the same terms, the same measure for `CCCC[C@H](NC(=O)C(C)c1ccc(NC(=O)Nc2ccccc2C)cc1)C(=O)N[C@@H](CC(=O)O)C(=O)N[C@H](C(=O)N1CCC[C@H]1C(N)=O)C(C)CC` (stereo partly drawn) [(3S)-3-{[(2S,3S)-1-[(2S)-2-carbamoylpyrrolidin-1-yl]-3-methyl-1-oxopentan-2-yl]carbamoyl}-3-[(2S)-2-[2-(4-{[(2-methylphenyl)carbamoyl]amino}phenyl)propanamido]hexanamido]propanoic acid] ({NH(2-Me-phenyl)-CO}-[X13][Nle]D[Ile(3ξ)]P-NH2): 3.1 nM; for `CCCC[C@H](NC(=O)CCCc1ccc(NC(=O)Nc2ccccc2C)cc1)C(=O)N[C@@H](CC(=O)O)C(=O)N[C@H](C(=O)N1CCC[C@H]1C(N)=O)C(C)CC` (stereo partly drawn) [(3S)-3-{[(2S,3S)-1-[(2S)-2-carbamoylpyrrolidin-1-yl]-3-methyl-1-oxopentan-2-yl]carbamoyl}-3-[(2S)-2-[4-(4-{[(2-methylphenyl)carbamoyl]amino}phenyl)butanamido]hexanamido]propanoic acid] ({NH(2-Me-phenyl)-CO}-[X3][Nle]D[Ile(3ξ)]P-NH2): 100 nM; for `CCCC[C@H](NC(=O)/C=C/c1ccc(NC(=O)Nc2ccccc2C)cc1)C(=O)N[C@@H](CC(=O)O)C(=O)N[C@H](C(=O)N1CCC[C@H]1C(N)=O)C(C)CC` (stereo partly drawn) [(3S)-3-{[(2S,3S)-1-[(2S)-2-carbamoylpyrrolidin-1-yl]-3-methyl-1-oxopentan-2-yl]carbamoyl}-3-[(2S)-2-[(2E)-3-(4-{[(2-methylphenyl)carbamoyl]amino}phenyl)prop-2-enamido]hexanamido]propanoic acid] ({NH(2-Me-phenyl)-CO}-[X2][Nle]D[Ile(3ξ)]P-NH2): 4.4 nM.

In the case of `CCCC[C@H](NC(=O)c1ccc(NC(=O)Nc2ccccc2C)cc1)C(=O)N[C@@H](CC(=O)O)C(=O)N[C@H](C(=O)N1CCC[C@H]1C(N)=O)C(C)CC` (stereo partly drawn) [(3S)-3-{[(2S,3S)-1-[(2S)-2-carbamoylpyrrolidin-1-yl]-3-methyl-1-oxopentan-2-yl]carbamoyl}-3-[(2S)-2-[(4-{[(2-methylphenyl)carbamoyl]amino}phenyl)formamido]hexanamido]propanoic acid] ({NH(2-Me-phenyl)-CO-4Abz}-[Nle]D[Ile(3ξ)]P-NH2), the IC50 was 3000 nM. With `CCCC[C@H](NC(=O)Cc1ccc(NC(=O)Nc2ccccc2C(C)C)cc1)C(=O)N[C@@H](CC(=O)O)C(=O)N[C@H](C(=O)N1CCC[C@H]1C(N)=O)C(C)CC` (stereo partly drawn) [(3S)-3-{[(2S,3S)-1-[(2S)-2-carbamoylpyrrolidin-1-yl]-3-methyl-1-oxopentan-2-yl]carbamoyl}-3-[(2S)-2-{1-[4-({[2-(propan-2-yl)phenyl]carbamoyl}amino)phenyl]acetamido}hexanamido]propanoic acid] ({X11-CO}-[X1][Nle]D[Ile(3ξ)]P-NH2), the IC50 is 531 nM.

With `CCCC[C@H](NC(=O)c1ccc(-c2cccc(NC(=O)Nc3ccccc3C)c2)o1)C(=O)N[C@@H](CC(=O)O)C(=O)N[C@H](C(=O)N1CCC[C@H]1C(N)=O)C(C)CC` (stereo partly drawn) [(3S)-3-{[(2S,3S)-1-[(2S)-2-carbamoylpyrrolidin-1-yl]-3-methyl-1-oxopentan-2-yl]carbamoyl}-3-[(2S)-2-{[5-(3-{[(2-methylphenyl)carbamoyl]amino}phenyl)furan-2-yl]formamido}hexanamido]propanoic acid] ({NH(2-Me-phenyl)-CO}-[X7][Nle]D[Ile(3ξ)]P-NH2), it took 325 nM to reach half-maximal inhibition (IC50). As to `CCCC[C@H](NC(=O)c1ccc(-c2ccc(NC(=O)Nc3ccccc3C)cc2)o1)C(=O)N[C@@H](CC(=O)O)C(=O)N[C@H](C(=O)N1CCC[C@H]1C(N)=O)C(C)CC` (stereo partly drawn) [(3S)-3-{[(2S,3S)-1-[(2S)-2-carbamoylpyrrolidin-1-yl]-3-methyl-1-oxopentan-2-yl]carbamoyl}-3-[(2S)-2-{[5-(4-{[(2-methylphenyl)carbamoyl]amino}phenyl)furan-2-yl]formamido}hexanamido]propanoic acid] ({NH(2-Me-phenyl)-CO}-[X5][Nle]D[Ile(3ξ)]P-NH2), the IC50 is 340 nM. Consider `CCCC[C@H](NC(=O)Nc1cccc(NC(=O)Nc2ccccc2C)c1)C(=O)N[C@@H](CC(=O)O)C(=O)N[C@H](C(=O)N1CCC[C@H]1C(N)=O)C(C)CC` (stereo partly drawn) [(3S)-3-{[(2S,3S)-1-[(2S)-2-carbamoylpyrrolidin-1-yl]-3-methyl-1-oxopentan-2-yl]carbamoyl}-3-[(2S)-2-{[(3-{[(2-methylphenyl)carbamoyl]amino}phenyl)carbamoyl]amino}hexanamido]propanoic acid] ({X9-CO}-[Nle]D[Ile(3ξ)]P-NH2), for which the IC50 was 3080 nM. Against the preceding molecule, the IC50 is about 9.1-fold higher.

The experiment is the same for the next values; noted with them: pH 7.5; 22 °C.
Molecule `CCCC[C@H](NC(=O)Cc1ccc(NC(=O)Nc2ccccc2C)cc1)C(=O)N[C@@H](CC(=O)O)C(=O)N[C@H](C(=O)N1CCC[C@H]1C(N)=O)C(C)CC` (stereo partly drawn) [(3S)-3-{[(2S,3S)-1-[(2S)-2-carbamoylpyrrolidin-1-yl]-3-methyl-1-oxopentan-2-yl]carbamoyl}-3-[(2S)-2-[1-(4-{[(2-methylphenyl)carbamoyl]amino}phenyl)acetamido]hexanamido]propanoic acid] displayed an IC50 of 1.4 nM.
